Literature values in patent publication US20110263659A1, “Analogs of 1-Methylnicotinamide” (Cortria Corporation, priority 2008, published 2011).

How the values were obtained:
[1] = human subjects; studies from Smolenski et al.
[2] = system: prostacyclin (PGI2) release; settings: preclinical; PCT/IB06/004013, PCT/EP05/050057, US 11/715,660
[3] = di-hydro-MNA 1 mmol/kg s.c., HPLC

increase of brain tissue levels of 1-MNA (factor) (di-hydro-MNA 1 mmol/kg s.c.) | increase in liver 1-MNA levels [3] [fold] | increase in plasma 1-MNA levels [3] [fold] | maximum 1-MNA levels in brain extracellular fluid (di-hydro-MNA 1-3 mmol/kg s.c.) [µM] | Compound | half life [1] [h] | ability to stimulate the release of prostacyclin (PGI2) [2]
 |  |  |  | 1-Methylnicotinamide [1-MNA] | 2 to 3 | ability to stimulate the release of prostacyclin (PGI2)
twenty | 9 | 4 | > 10 | CN1C=CCC(C(N)=O)=C1 [di-hydro-MNA, 1,4-dihydro-1-methylnicotinamide] |  | 
